{"source": "patent US20180235869A1", "about": "“METHODS AND COMPOSITIONS FOR SOFT ANTICHOLINERGIC ZWITTERIONS” (Bodor Laboratories, Inc., priority 2015, published 2018)", "origin": "cited, not measured here", "conditions": "solid oral form", "data": [{"smiles": "C[N+]1(C)CCC(OC(=O)C(O)(c2ccccc2)C2CCCC2)C1", "note": "(stereo not drawn) [glycopyrrolate]", "values": [{"measurement": "reducing drooling", "setting": "children", "value": "effective in reducing drooling"}, {"measurement": "dropped out of the study because of adverse effects", "setting": "children, most with cerebral palsy", "value": "over 20%"}, {"measurement": "children affected by adverse events", "setting": "most with cerebral palsy", "value": 69, "unit": "%"}]}]}
